The record followed here is US10227323B2, “Glucosylceramide synthase inhibitors for the treatment of diseases” (BIOMARIN PHARMACEUTICAL INC., priority 2013, dated 2019).

Some results are limits rather than exact numbers.

This test addresses T1, GCS (Canis lupus familiaris, UniProt A0A8I3MXG6).
T1 sequence (A0A8I3MXG6 1-394): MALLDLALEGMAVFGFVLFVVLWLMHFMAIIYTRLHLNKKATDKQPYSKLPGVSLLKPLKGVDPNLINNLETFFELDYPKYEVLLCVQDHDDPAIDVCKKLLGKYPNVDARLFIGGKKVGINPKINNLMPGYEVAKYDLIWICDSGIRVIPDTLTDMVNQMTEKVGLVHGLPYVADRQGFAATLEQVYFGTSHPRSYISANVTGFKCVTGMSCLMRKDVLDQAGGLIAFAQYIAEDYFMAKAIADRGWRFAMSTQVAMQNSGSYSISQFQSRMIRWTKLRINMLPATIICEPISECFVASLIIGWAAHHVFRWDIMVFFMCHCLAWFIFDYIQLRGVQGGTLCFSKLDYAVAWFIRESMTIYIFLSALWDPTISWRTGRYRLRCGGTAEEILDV
In words: Assay 1: GCS Enzymatic Assay (MDCK cell lysate, C6-NBD-Ceramide, LC/MS). It is filed as biochemical, canine. Conditions: Table 2; data without asterisk; read-out: IC50 (nM) generated from Assay 1. Summed up:
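LC/MS/MS measurement of glucosylceramide and NBD-ceramide after a 1 h, 37 °C reaction with 100 μM UDP-glucose and 10 μM C6-NBD-ceramide gave IC50s or percent inhibition.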

One may read the IC50 as the concentration needed to halve the response being measured. Consider `O=C(N[C@H](CN1CCCC1)[C@H](O)c1cc(F)c2c(c1)OCCO2)C(=O)c1ccc(-c2ccc3c(cnn3C3CC3)c2)cc1` [Example 275, 2-(4-(1-cyclopropyl-1H-indazol-5-yl)phenyl)-N-((1R,2R)-1-(8-fluoro-2,3-dihydrobenzo[b][1,4]dioxin-6-yl)-1-hydroxy-3-(pyrrolidin-1-yl)propan-2-yl)-2-oxoacetamide], for which the IC50 is below 50 nM.

For the molecule `O=C(N[C@H](CN1CCCC1)[C@H](O)c1cc(Cl)c2c(c1)OCCO2)C(=O)c1ccc(-c2ccc3c(cnn3C3CC3)c2)cc1` [Example 276, N-((1R,2R)-1-(8-chloro-2,3-dihydrobenzo[b][1,4]dioxin-6-yl)-1-hydroxy-3-(pyrrolidin-1-yl)propan-2-yl)-2-(4-(1-cyclopropyl-1H-indazol-5-yl)phenyl)-2-oxoacetamide], the concentration for half-maximal inhibition (IC50) was below 50 nM.

With `O=C(N[C@H](CN1CCCC1)[C@H](O)c1ccc(OC2CC2)c(Cl)c1)C(=O)c1ccc(-c2ccc3c(cnn3C3CC3)c2)cc1` [Example 277, N-((1R,2R)-1-(3-chloro-4-cyclopropoxyphenyl)-1-hydroxy-3-(pyrrolidin-1-yl)propan-2-yl)-2-(4-(1-cyclopropyl-1H-indazol-5-yl)phenyl)-2-oxoacetamide], the IC50 was below 50 nM.

As for `O=C(N[C@H](CN1CCC1)[C@H](O)c1cc(F)c2c(c1)OCCO2)C(=O)c1ccc(-c2ccc3c(cnn3C3CC3)c2)cc1` [Example 278, N-((1R,2R)-3-(azetidin-1-yl)-1-(8-fluoro-2,3-dihydrobenzo[b][1,4]dioxin-6-yl)-1-hydroxypropan-2-yl)-2-(4-(1-cyclopropyl-1H-indazol-5-yl)phenyl)-2-oxoacetamide], the IC50 is below 50 nM.

For the molecule `Cn1ncc2cc(-c3ccc(C(=O)C(=O)N[C@H](CN4CCC4)[C@H](O)c4ccc(OC5CC5)c(Cl)c4)cc3)ccc21` [Example 279, N-((1R,2R)-3-(azetidin-1-yl)-1-(3-chloro-4-cyclopropoxyphenyl)-1-hydroxypropan-2-yl)-2-(4-(1-methyl-1H-indazol-5-yl)phenyl)-2-oxoacetamide], the IC50 is below 50 nM.

Turning to `O=C(N[C@H](CN1CCCC1)[C@H](O)c1cc(F)c2c(c1)OCCO2)C(=O)c1ccc(-c2ccc3cnoc3c2)cc1` [Example 280, 2-(4-(benzo[d]isoxazol-6-yl)phenyl)-N-((1R,2R)-1-(8-fluoro-2,3-dihydrobenzo[b][1,4]dioxin-6-yl)-1-hydroxy-3-(pyrrolidin-1-yl)propan-2-yl)-2-oxoacetamide], the IC50 was below 50 nM.

In the case of `O=C(N[C@H](CN1CCCC1)[C@H](O)c1ccc(OC2CC2)c(Cl)c1)C(=O)c1ccc(-c2ccc3cnn(C4CC4)c3c2)cc1` [Example 281, N-((1R,2R)-1-(3-chloro-4-cyclopropoxyphenyl)-1-hydroxy-3-(pyrrolidin-1-yl)propan-2-yl)-2-(4-(1-cyclopropyl-1H-indazol-6-yl)phenyl)-2-oxoacetamide], the IC50 was below 50 nM.

As to `O=C(N[C@H](CN1CCCC1)[C@H](O)c1cc(F)c2c(c1)OCCO2)C(=O)c1ccc(-c2ccc3cnn(C4CC4)c3c2)cc1` [Example 282, 2-(4-(1-cyclopropyl-1H-indazol-6-yl)phenyl)-N-((1R,2R)-1-(8-fluoro-2,3-dihydrobenzo[b][1,4]dioxin-6-yl)-1-hydroxy-3-(pyrrolidin-1-yl)propan-2-yl)-2-oxoacetamide], the IC50 is below 50 nM.

As for `O=C(N[C@H](CN1CCC1)[C@H](O)c1cc(F)c2c(c1)OCCO2)C(=O)c1ccc(-c2ccc3cnn(C4CC4)c3c2)cc1` [Example 283, N-((1R,2R)-3-(azetidin-1-yl)-1-(8-fluoro-2,3-dihydrobenzo[b][1,4]dioxin-6-yl)-1-hydroxypropan-2-yl)-2-(4-(1-cyclopropyl-1H-indazol-6-yl)phenyl)-2-oxoacetamide], the IC50 was below 50 nM.

For `O=C(N[C@H](CN1CCCC1)[C@H](O)c1ccc(OC2CC2)c(Cl)c1)C(=O)c1ccc(-c2ccc3cn(C4CC4)nc3c2)cc1` [Example 284, N-((1R,2R)-1-(3-chloro-4-cyclopropoxyphenyl)-1-hydroxy-3-(pyrrolidin-1-yl)propan-2-yl)-2-(4-(2-cyclopropyl-2H-indazol-6-yl)phenyl)-2-oxoacetamide], the IC50 was below 50 nM.

`O=C(N[C@H](CN1CCC1)[C@H](O)c1cc(Cl)c2c(c1)OCCO2)C(=O)c1ccc(-c2ccc3c(cnn3C3CC3)c2)cc1` [Example 285, N-((1R,2R)-3-(azetidin-1-yl)-1-(8-chloro-2,3-dihydrobenzo[b][1,4]dioxin-6-yl)-1-hydroxypropan-2-yl)-2-(4-(1-cyclopropyl-1H-indazol-5-yl)phenyl)-2-oxoacetamide]: the IC50 was below 50 nM.

For the molecule `O=C(N[C@H](CN1CCCC1)[C@H](O)c1cc2c(c(C(F)(F)F)c1)OCCO2)C(=O)c1ccc(-c2ccc(F)cc2)cc1` [Example 286, 2-(4′-fluoro-[1,1′-biphenyl]-4-yl)-N-((1R,2R)-1-hydroxy-3-(pyrrolidin-1-yl)-1-(8-(trifluoromethyl)-2,3-dihydrobenzo[b][1,4]dioxin-6-yl)propan-2-yl)-2-oxoacetamide], the concentration for half-maximal inhibition (IC50) lay in the range of 50 to 5000 nM.

In the case of `O=C(N[C@H](CN1CCCC1)[C@H](O)c1ccc(OC2CC2)c(Cl)c1)C(=O)c1ccc(-c2ccc(F)cc2)nc1` [Example 287, N-((1R,2R)-1-(3-chloro-4-cyclopropoxyphenyl)-1-hydroxy-3-(pyrrolidin-1-yl)propan-2-yl)-2-(6-(4-fluorophenyl)pyridin-3-yl)-2-oxoacetamide], the IC50 was below 50 nM.

`O=C(N[C@H](CN1CCCC1)[C@H](O)c1ccc(OC2CC2)c(Cl)c1)C(=O)c1ccc2c(cnn2Cc2ccc(F)cc2)c1` [Example 288, N-((1R,2R)-1-(3-chloro-4-cyclopropoxyphenyl)-1-hydroxy-3-(pyrrolidin-1-yl)propan-2-yl)-2-(1-(4-fluorobenzyl)-1H-indazol-5-yl)-2-oxoacetamide]: the IC50 was below 50 nM.

Regarding `O=C(N[C@H](CN1CCCC1)[C@H](O)c1cc(F)c2c(c1)OCCO2)C(=O)c1ccc2c(cnn2Cc2ccc(F)cc2)c1` [Example 289, N-((1R,2R)-1-(8-fluoro-2,3-dihydrobenzo[b][1,4]dioxin-6-yl)-1-hydroxy-3-(pyrrolidin-1-yl)propan-2-yl)-2-(1-(4-fluorobenzyl)-1H-indazol-5-yl)-2-oxoacetamide], the IC50 is below 50 nM.

With `O=C(N[C@H](CN1CCCC1)[C@H](O)c1cc(F)c2c(c1)OCCO2)C(=O)c1ccc(-c2ccc3oncc3c2)cc1` [Example 290, 2-(4-(benzo[d]isoxazol-5-yl)phenyl)-N-((1R,2R)-1-(8-fluoro-2,3-dihydrobenzo[b][1,4]dioxin-6-yl)-1-hydroxy-3-(pyrrolidin-1-yl)propan-2-yl)-2-oxoacetamide], the IC50 was below 50 nM.

As for `CC(C)(C)Oc1ccc([C@@H](O)[C@@H](CN2CCCC2)NC(=O)C(=O)c2ccc(-c3ccc(F)cc3)cc2)cc1Cl` [Example 291, N-((1R,2R)-1-(4-(tert-butoxy)-3-chlorophenyl)-1-hydroxy-3-(pyrrolidin-1-yl)propan-2-yl)-2-(4′-fluoro-[1,1′-biphenyl]-4-yl)-2-oxoacetamide], the IC50 lay in the range of 50 to 5000 nM.

As for `O=C(N[C@H](CN1CCCC1)[C@H](O)c1ccc(OC2CC2)c(F)c1)C(=O)c1cc2ccc(Cl)cc2s1` [Example 292, 2-(6-chlorobenzo[b]thiophen-2-yl)-N-((1R,2R)-1-(4-cyclopropoxy-3-fluorophenyl)-1-hydroxy-3-(pyrrolidin-1-yl)propan-2-yl)-2-oxoacetamide], the IC50 is below 50 nM.

For the molecule `CC(C)(C)c1ccc(-c2ccc(C(=O)C(=O)N[C@H](CN3CCC3)[C@H](O)c3cc(F)c4c(c3)OCCO4)cc2)cc1` [Example 293, N-((1R,2R)-3-(azetidin-1-yl)-1-(8-fluoro-2,3-dihydrobenzo[b][1,4]dioxin-6-yl)-1-hydroxypropan-2-yl)-2-(4′-(tert-butyl)-[1,1′-biphenyl]-4-yl)-2-oxoacetamide], the IC50 is below 50 nM.

Turning to `CC(C)(C)c1ccc(-c2ccc(C(=O)C(=O)N[C@H](CN3CCCC3)[C@H](O)c3cc(F)c4c(c3)OCCO4)cc2)cc1` [Example 294, 2-(4′-(tert-butyl)-[1,1′-biphenyl]-4-yl)-N-((1R,2R)-1-(8-fluoro-2,3-dihydrobenzo[b][1,4]dioxin-6-yl)-1-hydroxy-3-(pyrrolidin-1-yl)propan-2-yl)-2-oxoacetamide], the IC50 was below 50 nM.

On to `Cc1cc(F)ccc1-c1ccc(C(=O)C(=O)N[C@H](CN2CCCC2)[C@H](O)c2ccc(OC3CC3)c(Cl)c2)cc1` [Example 295, N-((1R,2R)-1-(3-chloro-4-cyclopropoxyphenyl)-1-hydroxy-3-(pyrrolidin-1-yl)propan-2-yl)-2-(4′-fluoro-2′-methyl-[1,1′-biphenyl]-4-yl)-2-oxoacetamide], for which the IC50 lay within 50 to 5000 nM.

Take `O=C(N[C@H](CN1CCCC1)[C@H](O)c1ccc(OC2CC2)c(Cl)c1)C(=O)c1ccc(-c2ccc3scnc3c2)cc1` [Example 296, 2-(4-(benzo[d]thiazol-5-yl)phenyl)-N-((1R,2R)-1-(3-chloro-4-cyclopropoxyphenyl)-1-hydroxy-3-(pyrrolidin-1-yl)propan-2-yl)-2-oxoacetamide]: the IC50 was below 50 nM.

With `O=C(N[C@H](CN1CCCC1)[C@H](O)c1ccc(OC2CC2)c(Cl)c1)C(=O)c1ccc(-c2ccc3ncsc3c2)cc1` [Example 297, 2-(4-(benzo[d]thiazol-6-yl)phenyl)-N-((1R,2R)-1-(3-chloro-4-cyclopropoxyphenyl)-1-hydroxy-3-(pyrrolidin-1-yl)propan-2-yl)-2-oxoacetamide], the 50% inhibitory concentration (IC50) is below 50 nM.
